Measurements from paper doi:10.1101/362293v1 (biorxiv, 2018).
Changes are numbered by the printed parent chain. pKd, pKi: −log10 of the molar value.

Key:
CobB [1] = target: T1, CobB (Escherichia coli, UniProt P75960); assay: isothermal titration calorimetry; format: binding
T1 sequence (P75960 1-279): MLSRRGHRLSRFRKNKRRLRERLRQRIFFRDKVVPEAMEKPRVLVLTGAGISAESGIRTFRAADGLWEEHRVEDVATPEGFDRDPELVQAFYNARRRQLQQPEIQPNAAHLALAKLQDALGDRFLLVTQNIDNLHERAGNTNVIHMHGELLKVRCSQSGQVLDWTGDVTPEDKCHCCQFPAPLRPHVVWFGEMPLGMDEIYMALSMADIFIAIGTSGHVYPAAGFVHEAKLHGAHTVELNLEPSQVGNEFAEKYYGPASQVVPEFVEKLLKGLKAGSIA

CobB [2] = target: T2, CobB (Escherichia coli, UniProt P75960, R17A); assay: isothermal titration calorimetry; format: binding
T2 sequence (P75960 1-279 R17A): T1 sequence (P75960 1-279) with R17A

[3] = target: T3, S. typhimurium CobB; CobB^S. typhimurium (Salmonella enterica, UniProt P0A2F2); assay: affinity measurement, method not given; format: binding
T3 sequence (P0A2F2 1-273): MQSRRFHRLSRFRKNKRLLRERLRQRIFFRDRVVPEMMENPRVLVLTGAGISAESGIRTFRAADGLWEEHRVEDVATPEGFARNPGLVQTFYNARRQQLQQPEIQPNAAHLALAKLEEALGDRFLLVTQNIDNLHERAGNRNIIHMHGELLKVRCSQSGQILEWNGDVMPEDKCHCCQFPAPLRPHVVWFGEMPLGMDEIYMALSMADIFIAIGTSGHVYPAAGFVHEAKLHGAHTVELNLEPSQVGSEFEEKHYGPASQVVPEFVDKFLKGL

CobB [4] = target: T4, CobB (Escherichia coli, UniProt P75960, R8A); assay: isothermal titration calorimetry; format: binding
T4 sequence (P75960 1-279 R8A): T1 sequence (P75960 1-279) with R8A

CobB [5] = target: T5, CobB (Escherichia coli, UniProt P75960, E21A); assay: isothermal titration calorimetry; format: binding
T5 sequence (P75960 1-279 E21A): T1 sequence (P75960 1-279) with E21A

CobB [6] = target: T1, CobB; assay: deacetylation of an acetylated peptide, HPLC; format: biochemical

Nc1nc2c(ncn2[C@@H]2O[C@@H]3CO[P@](=O)(O)O[C@H]4[C@@H](O)[C@H](n5cnc6c(=O)[nH]c(N)nc65)O[C@@H]4CO[P@](=O)(O)O[C@H]3[C@H]2O)c(=O)[nH]1 [c-di-GMP]
pKd (CobB [1]): 4.67
pKd (CobB [2]): 2.80
pKd [3]: 4.81
pKd (CobB [4]): 2.74
pKd (CobB [5]): 3.49
pKi (CobB [6]): 4.49
